From publication PMC8994274, “A proteolysis-targeting chimera molecule selectively degrades ENL and inhibits malignant gene expression and tumor growth” (Journal of Hematology & Oncology, 2022)

Key:
mutant ENL (mENL) = biological target: T1, mutant ENL (mENL) (Homo sapiens, UniProt Q03111+Q96SW2, INS117NHL); test: Degradation of mutant and WT ENL in mENL-transfected HEK293T cells (Western blot); assay type: cell-based
T1 construct: FLAG (DYK); expressed in transfected cells; host or cells: HEK293T
T1 sequence (Q03111 with tags, fused parts or gaps INS117NHL): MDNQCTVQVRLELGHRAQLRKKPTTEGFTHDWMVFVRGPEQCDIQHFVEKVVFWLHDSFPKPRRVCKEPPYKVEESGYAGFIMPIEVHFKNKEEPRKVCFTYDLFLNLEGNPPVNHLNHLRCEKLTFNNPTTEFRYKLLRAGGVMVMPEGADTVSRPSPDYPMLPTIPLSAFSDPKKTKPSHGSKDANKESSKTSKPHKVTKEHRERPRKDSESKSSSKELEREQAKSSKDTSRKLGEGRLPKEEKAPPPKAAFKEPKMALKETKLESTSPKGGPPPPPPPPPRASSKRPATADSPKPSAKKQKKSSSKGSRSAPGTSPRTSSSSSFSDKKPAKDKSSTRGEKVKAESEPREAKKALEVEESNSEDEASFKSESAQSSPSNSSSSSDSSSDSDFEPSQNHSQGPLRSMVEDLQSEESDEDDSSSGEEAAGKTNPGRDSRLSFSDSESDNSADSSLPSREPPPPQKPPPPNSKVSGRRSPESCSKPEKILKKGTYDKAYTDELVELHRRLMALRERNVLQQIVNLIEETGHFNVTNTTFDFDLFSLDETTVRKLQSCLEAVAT
T1 sequence (Q96SW2 whole entry, stated change not applied): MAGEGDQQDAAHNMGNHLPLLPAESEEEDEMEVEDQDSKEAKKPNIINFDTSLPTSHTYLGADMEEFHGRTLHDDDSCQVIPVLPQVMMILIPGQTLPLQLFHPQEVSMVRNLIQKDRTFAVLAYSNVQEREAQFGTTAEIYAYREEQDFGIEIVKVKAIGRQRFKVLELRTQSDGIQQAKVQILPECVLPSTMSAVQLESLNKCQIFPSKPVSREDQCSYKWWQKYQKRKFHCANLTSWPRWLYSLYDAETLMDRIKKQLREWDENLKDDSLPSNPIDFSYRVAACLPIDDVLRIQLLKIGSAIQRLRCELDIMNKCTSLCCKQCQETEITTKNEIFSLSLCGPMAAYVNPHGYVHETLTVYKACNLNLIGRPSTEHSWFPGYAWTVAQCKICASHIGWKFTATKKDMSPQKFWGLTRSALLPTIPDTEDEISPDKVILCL
T1 sequence (Q16531 whole entry partner): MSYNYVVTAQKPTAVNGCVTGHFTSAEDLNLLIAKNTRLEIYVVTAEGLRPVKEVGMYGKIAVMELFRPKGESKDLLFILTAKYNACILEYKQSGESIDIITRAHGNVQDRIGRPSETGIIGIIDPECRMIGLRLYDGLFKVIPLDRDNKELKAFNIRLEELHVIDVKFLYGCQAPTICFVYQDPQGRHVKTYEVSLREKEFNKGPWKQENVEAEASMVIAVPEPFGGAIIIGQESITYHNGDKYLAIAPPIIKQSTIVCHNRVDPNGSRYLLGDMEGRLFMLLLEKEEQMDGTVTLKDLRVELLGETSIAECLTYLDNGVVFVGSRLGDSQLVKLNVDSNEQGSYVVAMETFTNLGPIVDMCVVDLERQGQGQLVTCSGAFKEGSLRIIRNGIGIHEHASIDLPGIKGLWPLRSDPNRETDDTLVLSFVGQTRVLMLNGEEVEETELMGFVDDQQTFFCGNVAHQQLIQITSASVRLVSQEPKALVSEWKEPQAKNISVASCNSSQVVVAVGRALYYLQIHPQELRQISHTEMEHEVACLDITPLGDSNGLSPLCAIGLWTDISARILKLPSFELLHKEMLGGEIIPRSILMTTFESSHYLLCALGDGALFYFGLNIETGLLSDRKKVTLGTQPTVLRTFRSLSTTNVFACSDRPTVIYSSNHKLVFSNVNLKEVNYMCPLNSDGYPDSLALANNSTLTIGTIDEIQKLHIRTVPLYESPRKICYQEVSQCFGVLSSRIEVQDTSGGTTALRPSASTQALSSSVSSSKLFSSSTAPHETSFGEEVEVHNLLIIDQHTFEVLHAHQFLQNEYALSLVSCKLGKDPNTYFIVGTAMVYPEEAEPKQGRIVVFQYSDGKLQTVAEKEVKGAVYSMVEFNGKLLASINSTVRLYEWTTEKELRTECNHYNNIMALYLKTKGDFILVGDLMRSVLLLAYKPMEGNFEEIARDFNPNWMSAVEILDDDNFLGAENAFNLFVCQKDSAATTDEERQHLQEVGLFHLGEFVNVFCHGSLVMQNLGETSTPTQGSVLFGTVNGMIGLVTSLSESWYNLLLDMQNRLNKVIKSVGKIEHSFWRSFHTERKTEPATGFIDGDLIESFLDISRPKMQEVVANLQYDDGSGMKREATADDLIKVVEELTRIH
Procedure: Ability of compound 1 to degrade mutant ENL, which has been implicated to cause Wilms tumor, was evaluated. […] A pcDNA3.1(+)-N-DYK plasmid containing a mutant ENL (mENL) with a short insertion of -NHL- between L117 and R118 [38] was transfected into 5 × 10^5 HEK293T cells. Upon incubation for 24 h, expression of the FLAG-tagged mENL can be dose-dependently detected with as low as 0.04 μg of the plasmid (Fig. 7a). Using a FLAG antibody appeared to be less quantitative because of a higher background staining for the control samples (Fig. 7a–c, left panels).
With 0.1 μg of the plasmid, compound 1 can efficiently degrade both WT and mutant ENL proteins with Dmax of ~ 95% at ~ 500 nM upon 24 h incubation (Fig. 7b). […] It was ineffective with 1 μg of the plasmid (not shown), presumably because the rate of mENL synthesis in cells was higher than that of 1-mediated degradation.
5 × 10^5 HEK293T cells were transfected with mENL containing pcDNA3.1(+)-N-DYK plasmid using jetPRIME (Polyplus Transfection) following the manufacturer's protocol. Upon transfection for 4 h, the media were carefully removed and the cells incubated with fresh media containing the specified concentrations of compound 1 for 24 h before further analysis (using Western blot or qPCR as described above).

ENL [1] = biological target: T2, ENL (Homo sapiens, UniProt Q03111); test: ChIP-qPCR, ENL at gene promoters of Myc and HoxA9; assay type: cell-based; parameters: endogenous in cells; host or cells: MV4;11; details: MV4;11 cells, 500 nM, 4 days
T2 sequence (Q03111 1-559): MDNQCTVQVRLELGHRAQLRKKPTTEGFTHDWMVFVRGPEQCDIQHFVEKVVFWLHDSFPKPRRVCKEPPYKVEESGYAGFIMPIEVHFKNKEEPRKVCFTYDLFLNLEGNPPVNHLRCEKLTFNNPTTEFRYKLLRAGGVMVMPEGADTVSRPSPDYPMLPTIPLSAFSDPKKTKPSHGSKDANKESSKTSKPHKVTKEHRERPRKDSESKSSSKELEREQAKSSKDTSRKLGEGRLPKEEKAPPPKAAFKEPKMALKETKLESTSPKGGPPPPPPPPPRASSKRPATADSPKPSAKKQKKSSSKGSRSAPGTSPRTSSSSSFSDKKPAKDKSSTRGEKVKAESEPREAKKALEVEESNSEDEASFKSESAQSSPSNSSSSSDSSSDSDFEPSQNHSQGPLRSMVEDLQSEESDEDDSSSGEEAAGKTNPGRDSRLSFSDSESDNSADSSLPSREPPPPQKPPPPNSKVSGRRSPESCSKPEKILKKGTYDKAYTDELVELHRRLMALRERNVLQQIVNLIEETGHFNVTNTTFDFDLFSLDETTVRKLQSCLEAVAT
Procedure: Chromatin immunoprecipitation (ChIP) followed by qPCR was used to further probe the activity of compound 1 in the gene promoters of Myc and HoxA9, two characteristic MLL1 target genes.
Upon treatment with a compound for 4 days, 10^7 MV4;11 cells were cross-linked with 1% formaldehyde at room temperature for 10 min, followed by the addition of 125 mM glycine. Cells were lysed with nuclear lysis buffer and sonicated to ~ 100–1000 bp fragments, which was incubated at 4 °C overnight with an antibody and IgG (C15410206, Diagenode). Protein A/G Magnetic Beads (10 µL, Novus Biologicals) were added and incubated for 2 h. The beads were washed 3 × with RIPA buffer and 2 × with TE buffer. DNA on the beads was eluted for 2 h at 68 °C in 100 μL of an elution buffer (20 mM Tris pH 7.5, 5 mM EDTA, 50 mM NaCl, 1% SDS, 50 μg/mL proteinase K) (2 ×), and purified using a ChIP DNA Clean & Concentrator kit (Novus Biologicals). qPCR was done using the method described above.

ENL [2] = biological target: T2, ENL; test: ENL degradation in MV4;11 cells (Western blot); assay type: cell-based; parameters: endogenous in cells; host or cells: MV4;11; details: 24 h
Procedure: We next tested whether these compounds degrade ENL and AF9 in MV4;11 leukemia cells with the MLL1-AF4 oncogene. Upon compound treatment for 24 h, the cells were washed, lysed, and the lysates subjected to SDS-PAGE (sodium dodecyl sulfate–polyacrylamide gel electrophoresis) followed by detection with Western blot.
3 × 10^6 cells/well were treated with increasing concentrations of a compound for 1 day, and whole proteins were extracted. Equal amounts of proteins were separated on SDS-PAGE and transferred to PVDF membranes. The blots were probed with primary antibodies, followed by anti-rabbit IgG (Thermo Scientific) secondary antibodies. The primary antibodies against ENL (Cell signaling #14893), AF9 (Novusbio #NB100-1565), DOT1L (Cell signaling #77087), AFF4 (Abcam #ab103586), Cyclin T1 (Cell signaling #81464), H3K79me2 (Cell signaling #5427), H3K79me1 (Cell signaling #9398), Histone H3 (Cell signaling #4499), FLAG (Sigma-Aldrich #F1804), β-Actin (Cell signaling #4970) were used in this study.

Hela cells = test: Antiproliferation assay, Hela; details: Homo sapiens, 168 h, read-out: Antiproliferative activity, EC50, Hela
ENL [3] = biological target: T2, ENL; test: ENL degradation in MV4;11 cells (Western blot); assay type: cell-based; parameters: endogenous in cells; host or cells: MV4;11; details: 500 nM
Kasumi-1 cells = test: Antiproliferation assay (XTT), Kasumi-1; details: Homo sapiens, Kasumi 1, 168 h, read-out: Antiproliferative activity, EC50, Kasumi-1
Procedure: (§1) Proliferation inhibition assays for suspension blood cancer cells were performed using an XTT assay kit (Biotium), following our previous methods [22]. EC50 values were determined using Prism 5 and from at least three independent experiments.

RPMI-8226 cells = test: Antiproliferation assay (XTT), RPMI-8226; details: Homo sapiens, RPMI-8226, 168 h, read-out: Antiproliferative activity, EC50, RPMI-8226
Procedure: as §1

U266 cells = test: Antiproliferation assay (XTT), U266; details: Homo sapiens, U-266, 168 h, read-out: Antiproliferative activity, EC50, U266
Procedure: as §1

Panc1 cells = test: Antiproliferation assay, Panc1; details: Homo sapiens, PANC-1, 168 h, read-out: Antiproliferative activity, EC50, Panc1

C[C@H]1CCCN1Cc1nc2cc(NC(=O)c3ccc4c(cnn4CCCCCCCCNc4cccc5c4C(=O)N(C4CCC(=O)NC4=O)C5=O)c3)ccc2[nH]1 (some centres unmarked) [Compound 1]
Degradation of WT and mutant ENLs (mutant ENL (mENL); 0.2 μg of the plasmid, 500 nM, 24 h): reduced efficiency | Degradation of WT and mutant ENLs (mutant ENL (mENL); 1 μg of the plasmid): ineffective | Dmax (mutant ENL (mENL); HEK-293T, 0.1 μg of the plasmid, ~ 500 nM, 24 h): ~95% | ENL levels at gene promoters of Myc and HoxA9 (ENL [1]): significantly reduced | Dmax (ENL [2]; MV4-11, MV4;11 cells, read-out: Dmax (maximal degradation) of ENL): ~95% | Concentration of maximal ENL-degrading activity (hook effect above) (ENL [2]; MV4;11 cells): ~ 500 nM | DC50 (ENL [2]; MV4;11 cells, read-out: DC50 (concentration at which a protein is reduced by 50%) of ENL): 37 nM | EC50 (Hela cells): > 50000 nM | Time at which significant ENL degradation can be detected (ENL [3]): 2 h | Time to ENL depletion (ENL [3]): ≤ 24 h | EC50 (Kasumi-1 cells): 1100 ± 30 nM | EC50 (RPMI-8226 cells): 1200 ± 230 nM | EC50 (U266 cells): 4100 ± 1800 nM | EC50 (Panc1 cells): > 50000 nM
